Data published in patent US11712439B2, “Methods and materials for identifying and treating bet inhibitor-resistant cancers” (Mayo Foundation for Medical Education and Research, priority 2017, dated 2023).
Where a SMILES comes first, the peptide text is derived from it. The star is where a group is joined. Cbz = O=C(OCc1ccccc1)*

Key:
BRD2/3/4 = test: Western blot and RT-qPCR of BRD2/3/4 in inhibitor-treated LNCaP cells; type: cell-based, human; details: 8 hours, Bortezomib 200 nM, MG132 20 μM; for BRD2/3/4 protein level: MLN4924 200 nM
Description: (§1) Cell lysates or immunoprecipitates were subjected to SDS-PAGE, and proteins were transferred to nitrocellulose membranes (GE Healthcare Sciences). The membranes were blocked in Tris-buffered saline (TBS, pH 7.4) containing 5% non-fat milk and 0.1% Tween-20, washed twice in TBS containing 0.1% Tween-20, and incubated with primary antibody overnight at 4° C., followed by secondary antibody for 1 hour at room temperature. The proteins of interest were visualized using ECL chemiluminescence system (Santa Cruz Biotechnology). Densitometry analysis of protein bands was analyzed on the Gel-Pro Analyzer software.
Total RNA was isolated from transiently transfected cells using the Trizol reagent (Thermo Fisher Scientific), and cDNA was reverse-transcribed using the Superscript RT kit (TOYOBO, Japan) according to the manufacturer's instructions. PCR amplification was performed using the SYBR Green PCR master mix Kit (TOYOBO, Japan). All quantization was normalized to the level of endogenous control GAPDH. The primer sequences for the SYBR green qPCR used were as follows: BRD2-F: 5′-[…]-3′ (SEQ ID NO:10); BRD2-R: 5′-[…]-3′ (SEQ ID NO:11); BRD3-F: 5′-[…]-3′ (SEQ ID NO:12); BRD3-R: 5′-[…]-[…]-3′ (SEQ ID NO:13); BRD4-F: 5′-[…]-GAG-3′ (SEQ ID NO:14); BRD4-F: 5′-[…]-3′ (SEQ ID NO:15); RAC1-F: 5′-[…]-3′ (SEQ ID NO:16); RAC1-R: 5′-[…]-3′ (SEQ ID NO:17); FDFT1-F: 5′-ACTAT-[…]-3′ (SEQ ID NO:18); FDFT1-R: 5′-[…]-[…]-3′ (SEQ ID NO:19); DHCR24-F: 5′-[…]-GAGC-3′ (SEQ ID NO:20); DHCR24-R: 5′-[…]-3′ (SEQ ID NO:21); DHCR7-F: 5′-[…]-3′ (SEQ ID NO:22); DHCR7-R: 5′-[…]-3′ (SEQ ID NO:23); MVD-F: 5′-[…]-3′ (SEQ ID NO:24); MVD-R: 5′-CACAC-[…]-3′ (SEQ ID NO:25); PSA-F: 5′-[…]-[…]-3′ (SEQ ID NO:26); PSA-R: 5′-[…]-3′ (SEQ ID NO:27); TMPRSS2-F: 5′-[…]-3′ (SEQ ID NO:28); TMPRSS2-R: 5′-[…]-3′ (SEQ ID NO:29); MYC-F: 5′-[…]-3′ (SEQ ID NO:30); MYC-R: 5′-CTTGT-[…]-3′ (SEQ ID NO:31); AR-F: 5′-[…]-TCACC-3′ (SEQ ID NO:32); AR-R: 5′-[…]-3′ (SEQ ID NO:33); GAPDH-F: 5′-[…]-3′ (SEQ ID NO:34); and GAPDH-R: 5′-[…]-3′ (SEQ ID NO:35).

C4-2 cells = test: Cell proliferation assay (MTS) and trypan blue assay, C4-2 cells; type: cell-based, human; details: SPOP-F133V C4-2 cells, GDC-0068 0.2 μM with JQ1 0.25 μM, 5 days
Description: CellTiter 96® AQueous One Solution Cell Proliferation Assay (MTS) (Promega) was used to measure cell growth according to the manufacturer's instructions. Briefly, cells were plated in 96-well plates at a density of 2,000 cells per well. At the indicated times, 20 μL of Cell Titer 96R Aqueous One Solution Reagent was added to medium. After incubating for 1 hour at 37° C. in the cell incubator, cell growth was measured in a microplate reader at 490 nm.
Trypan blue assay was performed to measure cell growth according to the manufacturer's instructions. Briefly, cells were plated in 6-well plates at a density of about 5×10^4 to about 1×10^5 cells per well. At the indicated time points, cells were trypsinized and suspended in 1 mL 1×PBS. 100 μL cells and 100 μL trypan blue solution (Sigma-Aldrich) were mixed, and the number of viable cells was measured using the Bio-Rad automated cell counter.

AKT-mTORC1 pathway = test: Western blot of AKT and S6K phosphorylation in C4-2 cells; type: cell-based, human; details: SPOP-F133V C4-2 cells, GDC-0068 1 μM, 24 hours
Description: as §1

C4-2 xenograft tumors = test: Prostate cancer xenografts in mice, tumor volume; type: in vivo; details: SPOP-F133V C4-2 xenografts, GDC-0068 100 mg/kg with JQ1 50 mg/kg, 5 days a week, day 21
Description: 6-week-old NOD-SCID IL-2-receptor gamma null (NSG) mice were generated and randomly divided into different experimental groups as indicated. All mice were housed in standard conditions with a 12-hour light/dark cycle and access to food and water ad libitum. For BRD2/3/4 knockdown studies, C4-2 cells (5×10^6), infected with lentivirus expressing empty vector (EV) or HA-SPOP-F133V mutant in combination with control shRNA or BRD2/3/4-specific shRNA, were mixed with Matrigel (in 100 μL 1×PBS plus 100 μL Matrigel (BD Biosciences)) and injected s.c. into the right flank of mice. […] Growth in tumor volume was measured in a blinded fashion using digital caliper, and tumor volumes were estimated using the formula (L×W2)/2, where L is length of tumor and W is width. The volumes of tumors were compared, and P values were determined by a two-tailed Student's t test. Upon the completion of treatment, tumor grafts were harvested. Tumor tissues were divided, and a portion was subjected to FFPE. the rest was frozen for protein and RNA extraction.

solid tumors = details: patients with solid tumors (Saura et al. 2017); cited from earlier work
BRD2/3/4 proteins = test: Western blot of 293T cells transfected with SPOP and BRD2/3/4, with or without MG132; type: cell-based, human; details: 20 μM MG132 for 8 hours
Description: as §1

Row | Compound | BRD2/3/4 mRNA expression (BRD2/3/4) | BRD2/3/4 protein level (BRD2/3/4) | SPOP mutation-conferred resistance to BET inhibitor, cells in culture (C4-2 cells) | SPOP mutation-induced activation of AKT downstream pathways (AKT-mTORC1 pathway) | SPOP mutation-conferred resistance to BET inhibitor, tumors in mice (C4-2 xenograft tumors) | Antitumor efficacy in patients (solid tumors) | Effect on the decrease of BRD2/3/4 proteins caused by wild-type SPOP (BRD2/3/4 proteins)
1 | CC(C)C[C@H](NC(=O)[C@H](Cc1ccccc1)NC(=O)c1cnccn1)B(O)O [Bortezomib] | not mRNA expression | increased BRD2/3/4 protein | – | – | – | – | –
2 | CC(C)NC[C@@H](C(=O)N1CCN(c2ncnc3c2[C@H](C)C[C@H]3O)CC1)c1ccc(Cl)cc1 [GDC-0068] | – | – | completely overcame | abolished | completely overcame | effective antitumor efficacy | –
3 | CC(C)C[C@@H](C=O)NC(=O)[C@H](CC(C)C)NC(=O)[C@H](CC(C)C)NC(=O)OCc1ccccc1 [MG132] (Cbz-Leu-Leu-Leu-aldehyde) | not mRNA expression | increased BRD2/3/4 protein | – | – | – | – | completely reversed
4 | NS(=O)(=O)OC[C@@H]1C[C@@H](n2ccc3c(N[C@H]4CCc5ccccc54)ncnc32)C[C@@H]1O [MLN4924] | – | caused accumulation of BRD2/3/4 at protein level | – | – | – | – | –
